Four compounds from ChEMBL document CHEMBL5108067, “Discovery of Potent OTUB1/USP8 Dual Inhibitors Targeting Proteostasis in Non-Small-Cell Lung Cancer” (J Med Chem, 2022) can be followed below.

The term inhibition denotes the percentage by which the read-out fell short of the control. Read a high inhibition as a response far below the control. As a reminder, the pIC50 is the negative decadic logarithm of the IC50, by convention in mol/L. Read a high pIC50 as a low IC50. Broadly, the residual activity is the share of the control activity or signal that is left under treatment. Higher therefore signals a small loss of activity.

pIC50: −log10 of the molar value. Active and inactive are the calls of the source. No cut-off for these calls is given here.

The target in data set [1] is T1, Ubiquitin thioesterase OTUB1 (Homo sapiens, UniProt Q96FW1). Nature of the data set: Inhibition of N-terminal His-6 tagged OTUB1 (40 to 271 residues) (unknown origin) expressed in Escherichia coli BL21 (DE3) cells at […] using Ub-Rho measured after 0.5 to 3 hrs by fluorescence based Plate reader method relative to control. To be noted: dose 2.5 µM, time 0.5-3 hrs.

The target of data set [2] is T1, Ubiquitin thioesterase OTUB1. Nature of the data set: Binding affinity to OTUB1 in HEK293T cells at 5 uM preincubated for 30 mins followed by UV irradiation and measured after 20 mins by Western blot assay. Format: cell-based. Particulars: time 50.0 min.
Data set [3] shares this target. Nature of the data set: Inhibition of N-terminal His-6 tagged OTUB1 (40 to 271 residues) (unknown origin) expressed in Escherichia coli BL21 (DE3) cells using Ub-Rho measured after 0.5 to 3 hrs by fluorescence based Plate reader method.
Data set [4] shares this target. In words: Binding affinity to OTUB1 in HEK293T cells at 0.5 uM preincubated for 2 hrs followed by UV irradiation and measured after 20 mins by Western blot analysis. To be noted: time 140.0 min. It counts as cell-based. Background: A western blot detects proteins with antibodies after separation by electrophoresis.
Data set [5] has the same target. Nature of the data set: Binding affinity to OTUB1 in HEK293T cells at 1 uM preincubated for 2 hrs followed by UV irradiation and measured after 20 mins by silver staining based gel electrophoresis assay. It counts as cell-based. Particulars: time 140.0 min.
The target is the same in data set [6]. In words: Binding affinity to OTUB1 in HEK293T cells at […] preincubated for 30 mins followed by UV irradiation and measured after 20 mins by Western blot analysis. It counts as cell-based. To be noted: dose 2.5 µM, time 50.0 min.
Data set [7] concerns the target T2, Ubiquitin carboxyl-terminal hydrolase 8 (Homo sapiens) (UniProt P40818).
T2 sequence (whole entry): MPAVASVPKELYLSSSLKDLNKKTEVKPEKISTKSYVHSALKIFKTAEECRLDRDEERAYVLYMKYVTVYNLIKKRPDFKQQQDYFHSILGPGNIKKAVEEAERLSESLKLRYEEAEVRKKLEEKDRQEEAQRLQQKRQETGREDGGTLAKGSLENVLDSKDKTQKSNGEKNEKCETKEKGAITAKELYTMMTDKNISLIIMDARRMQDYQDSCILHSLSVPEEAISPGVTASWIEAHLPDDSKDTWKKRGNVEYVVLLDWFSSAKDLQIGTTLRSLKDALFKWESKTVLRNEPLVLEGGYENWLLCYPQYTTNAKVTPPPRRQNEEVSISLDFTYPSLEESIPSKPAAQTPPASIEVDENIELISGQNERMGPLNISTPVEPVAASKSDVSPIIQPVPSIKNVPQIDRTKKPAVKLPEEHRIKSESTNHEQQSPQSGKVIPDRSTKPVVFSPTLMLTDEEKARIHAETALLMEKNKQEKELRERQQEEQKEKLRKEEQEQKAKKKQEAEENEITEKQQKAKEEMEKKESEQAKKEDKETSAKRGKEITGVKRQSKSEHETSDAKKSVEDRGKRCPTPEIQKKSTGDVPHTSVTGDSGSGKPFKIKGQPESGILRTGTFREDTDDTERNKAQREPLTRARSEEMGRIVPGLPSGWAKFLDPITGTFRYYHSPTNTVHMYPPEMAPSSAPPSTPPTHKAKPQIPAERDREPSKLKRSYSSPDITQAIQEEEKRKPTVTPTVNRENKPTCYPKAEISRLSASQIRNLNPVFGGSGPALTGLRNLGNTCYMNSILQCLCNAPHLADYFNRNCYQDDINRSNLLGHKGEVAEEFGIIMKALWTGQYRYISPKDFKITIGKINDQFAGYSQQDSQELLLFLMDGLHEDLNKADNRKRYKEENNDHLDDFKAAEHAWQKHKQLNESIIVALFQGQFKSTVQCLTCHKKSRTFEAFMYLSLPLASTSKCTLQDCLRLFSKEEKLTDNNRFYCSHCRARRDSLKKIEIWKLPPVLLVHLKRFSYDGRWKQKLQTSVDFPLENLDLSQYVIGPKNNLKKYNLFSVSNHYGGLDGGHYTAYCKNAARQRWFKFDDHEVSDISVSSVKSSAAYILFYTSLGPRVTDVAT
Nature of the data set: Inhibition of N-terminal His-6 tagged USP8 (734 to 1110 residues) (unknown origin) expressed in Escherichia coli BL21 (DE3) cells at 10 nM measured after 3 hrs by fluorescence based Plate reader method relative to control. Particulars: values are per cent of control.

Data set [8] is described as follows: Aqueous solubility of the compound measured after 24 hr by […] LC-MS/MS analysis. It counts as physicochemical. Particulars: buffer.
The target of data set [9] is T2, Ubiquitin carboxyl-terminal hydrolase 8 (Homo sapiens). Nature of the data set: Inhibition of N-terminal His-6 tagged USP8 (734 to 1110 residues) (unknown origin) expressed in Escherichia coli BL21 (DE3) cells at 100 nM measured after 3 hrs by fluorescence based Plate reader method relative to control. Particulars: values are per cent of control.
Data set [10] concerns the target T1, Ubiquitin thioesterase OTUB1. In words: Inhibition of N-terminal His-6 tagged OTUB1 (40 to 271 residues) (unknown origin) expressed in Escherichia coli BL21 (DE3) cells at 100 nM using Ub-Rho measured after 0.5 to 3 hrs by fluorescence based Plate reader method relative to control. Particulars: time 0.5-3 hrs, values are per cent of control.
For data set [11] the target is unchanged. Nature of the data set: Inhibition of N-terminal His-6 tagged OTUB1 (40 to 271 residues) (unknown origin) expressed in Escherichia coli BL21 (DE3) cells at 10 nM using Ub-Rho measured after 0.5 to 3 hrs by fluorescence based Plate reader method relative to control. Particulars: time 0.5-3 hrs, values are per cent of control.

T1 sequence (Q96FW1 whole entry, the tested form may be a part): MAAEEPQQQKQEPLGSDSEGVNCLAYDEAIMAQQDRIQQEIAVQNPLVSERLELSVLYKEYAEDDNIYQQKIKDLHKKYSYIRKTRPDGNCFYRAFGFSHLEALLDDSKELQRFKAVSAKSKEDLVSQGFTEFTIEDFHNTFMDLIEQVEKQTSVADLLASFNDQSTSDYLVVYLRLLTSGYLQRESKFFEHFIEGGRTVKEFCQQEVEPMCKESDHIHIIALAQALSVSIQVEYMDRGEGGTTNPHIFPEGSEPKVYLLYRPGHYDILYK

`O=C1c2ccccc2C(=O)c2oc(-c3ccccc3)nc21`: the inhibition in data set [1] was 100%.

In the case of `C#CCCC1(CCN2CC[C@@H](Oc3cccc(-c4nc5c([nH]4)C(=O)c4ccccc4C5=O)c3)C2)N=N1`, in data set [2], the outcome was Active. Also, the negative logarithm of the IC50 (pIC50) in data set [3] is 5.21.

Turning to `C#CCCC1(CCN2CC[C@@H](Oc3cccc(-c4nc5c(o4)C(=O)c4ccccc4C5=O)c3)C2)N=N1`, the outcome in [4], in [5] and in data set [6] was Active. Further, the pIC50 in data set [3] was 7.43.

On to `CN1CCN(CCOc2ccc(Cl)c(-c3nc4c(o3)C(=O)c3ccccc3C4=O)c2F)CC1`, for which the residual activity in [7] is 33.1%; in data set [9], 32.6%; in data set [10], 7.2%; in [11] it was 14.4%. Further, the solubility result in data set [8] is “Soluble”.
